# In patent US8772343B2, “Chemical compounds” (Pfizer Limited, priority 2010, dated 2014):
# Where a name gives a salt, the structure may show the parent alone.
# Molecular target: T1, Nav1.7 (or SCN9A) channel (Homo sapiens, UniProt Q15858)
# T1 construct: expressed in transfected cells
# Assay: Nav1.7 PatchXpress automated whole-cell electrophysiology in HEK cells expressing hSCN9A
# Assay type: cell-based
# Settings: estimated IC50 from single point data, PatchXpress assay, held at V1/2 of inactivation, read-out: Nav1.7 EIC50
# Description: The ability of the compounds of formula (I) to block the Nav1.7 (or SCN9A) channel were measured using the assay described below.
# Human Embryonic Kidney (HEK) cells were transfected with an hSCN9A construct using lipofectamine reagent (Invitrogen), using standard techniques. Cells stably expressing the hSCN9A constructs were identified by their resistance to G-418 (400 μg/ml). Clones were screened for expression using the whole-cell voltage-clamp technique.
# HEK cells stably transfected with hSCN9A were maintained in DMEM medium supplemented with 10% heat-inactivated fetal bovine serum and 400 μg/ml G-418 in an incubator at 37° C. with a humidified atmosphere of 10% CO2. For HTS, cells were harvested from flasks by trypsinization and replated in an appropriate multi-well plate (typically 96 or 384 wells/plate) such that confluence would be achieved within 24 hours of plating. For electrophysiological studies, cells were removed from the culture flask by brief trypsinization and re-plated at low density onto glass cover slips. Cells were typically used for electrophysiological experiments within 24 to 72 hours after plating.
# Cover slips containing HEK cells expressing hSCN9A were placed in a bath on the stage of an inverted microscope and perfused (approximately 1 ml/minutes) with extracellular solution of the following composition: 138 mM NaCl, 2 mM CaCl2, 5.4 mM KCl, 1 mM MgCl2, 10 mM glucose, and 10 mM HEPES, pH 7.4, with NaOH. […] The osmolarity of the extracellular and intracellular solutions was 300 mOsm/kg and 295 mOsm/kg, respectively. All recordings were made at room temperature (22-24° C.) using AXOPATCH 200B amplifiers and PCLAMP software (Axon Instruments, Burlingame, Calif.).
# hSCN9A currents in HEK cells were measured using the whole-cell configuration of the patch-clamp technique (Hamill et al., 1981). Uncompensated series resistance was typically 2 to 5 mega ohms and >85% series resistance compensation was routinely achieved. As a result, voltage errors were negligible and no correction was applied. Current records were acquired at 20 to 50 KHz and filtered at 5 to 10 KHz.
# HEK cells stably transfected with hSCN9A were viewed under Hoffman contrast optics and placed in front of an array of flow pipes emitting either control or compound-containing extracellular solutions. All compounds were dissolved in dimethyl sulfoxide to make 10 mM stock solutions, which were then diluted into extracellular solution to attain the final concentrations desired. […] The voltage-dependence of inactivation was determined by applying a series of depolarizing prepulses (8 sec long in 10 mV increments) from a negative holding potential. The voltage was then immediately stepped to 0 mV to assess the magnitude of the sodium current. Currents elicited at 0 mV were plotted as a function of prepulse potential to allow estimation of the voltage at which 50% of the channels were inactivated (midpoint of inactivation or V1/2). Compounds were tested for their ability to inhibit hSCN9A sodium channels by activating the channel with a 20 msec voltage step to 0 mV following an 8 second conditioning prepulse to the empirically determined V1/2. Compound effect (% inhibition) was determined by difference in current amplitude before and after application of test compounds. For ease of comparison, “estimated IC-50” (EIC50) values were calculated from single point electrophysiology data by the following equation, (tested concentration, uM)×(100-% inhibition/% inhibition). Inhibition values<20% and >80% were excluded from the calculation.
# Electrophysiological assays were conducted with PatchXpress 7000 hardware and associated software (Molecular Devices Corp). All assay buffers and solutions were identical to those used in conventional whole-cell voltage clamp experiments described above. hSCN9A cells were grown as above to 50%-80% confluency and harvested by trypsinization. […]
# T1 sequence (Q15858 whole entry): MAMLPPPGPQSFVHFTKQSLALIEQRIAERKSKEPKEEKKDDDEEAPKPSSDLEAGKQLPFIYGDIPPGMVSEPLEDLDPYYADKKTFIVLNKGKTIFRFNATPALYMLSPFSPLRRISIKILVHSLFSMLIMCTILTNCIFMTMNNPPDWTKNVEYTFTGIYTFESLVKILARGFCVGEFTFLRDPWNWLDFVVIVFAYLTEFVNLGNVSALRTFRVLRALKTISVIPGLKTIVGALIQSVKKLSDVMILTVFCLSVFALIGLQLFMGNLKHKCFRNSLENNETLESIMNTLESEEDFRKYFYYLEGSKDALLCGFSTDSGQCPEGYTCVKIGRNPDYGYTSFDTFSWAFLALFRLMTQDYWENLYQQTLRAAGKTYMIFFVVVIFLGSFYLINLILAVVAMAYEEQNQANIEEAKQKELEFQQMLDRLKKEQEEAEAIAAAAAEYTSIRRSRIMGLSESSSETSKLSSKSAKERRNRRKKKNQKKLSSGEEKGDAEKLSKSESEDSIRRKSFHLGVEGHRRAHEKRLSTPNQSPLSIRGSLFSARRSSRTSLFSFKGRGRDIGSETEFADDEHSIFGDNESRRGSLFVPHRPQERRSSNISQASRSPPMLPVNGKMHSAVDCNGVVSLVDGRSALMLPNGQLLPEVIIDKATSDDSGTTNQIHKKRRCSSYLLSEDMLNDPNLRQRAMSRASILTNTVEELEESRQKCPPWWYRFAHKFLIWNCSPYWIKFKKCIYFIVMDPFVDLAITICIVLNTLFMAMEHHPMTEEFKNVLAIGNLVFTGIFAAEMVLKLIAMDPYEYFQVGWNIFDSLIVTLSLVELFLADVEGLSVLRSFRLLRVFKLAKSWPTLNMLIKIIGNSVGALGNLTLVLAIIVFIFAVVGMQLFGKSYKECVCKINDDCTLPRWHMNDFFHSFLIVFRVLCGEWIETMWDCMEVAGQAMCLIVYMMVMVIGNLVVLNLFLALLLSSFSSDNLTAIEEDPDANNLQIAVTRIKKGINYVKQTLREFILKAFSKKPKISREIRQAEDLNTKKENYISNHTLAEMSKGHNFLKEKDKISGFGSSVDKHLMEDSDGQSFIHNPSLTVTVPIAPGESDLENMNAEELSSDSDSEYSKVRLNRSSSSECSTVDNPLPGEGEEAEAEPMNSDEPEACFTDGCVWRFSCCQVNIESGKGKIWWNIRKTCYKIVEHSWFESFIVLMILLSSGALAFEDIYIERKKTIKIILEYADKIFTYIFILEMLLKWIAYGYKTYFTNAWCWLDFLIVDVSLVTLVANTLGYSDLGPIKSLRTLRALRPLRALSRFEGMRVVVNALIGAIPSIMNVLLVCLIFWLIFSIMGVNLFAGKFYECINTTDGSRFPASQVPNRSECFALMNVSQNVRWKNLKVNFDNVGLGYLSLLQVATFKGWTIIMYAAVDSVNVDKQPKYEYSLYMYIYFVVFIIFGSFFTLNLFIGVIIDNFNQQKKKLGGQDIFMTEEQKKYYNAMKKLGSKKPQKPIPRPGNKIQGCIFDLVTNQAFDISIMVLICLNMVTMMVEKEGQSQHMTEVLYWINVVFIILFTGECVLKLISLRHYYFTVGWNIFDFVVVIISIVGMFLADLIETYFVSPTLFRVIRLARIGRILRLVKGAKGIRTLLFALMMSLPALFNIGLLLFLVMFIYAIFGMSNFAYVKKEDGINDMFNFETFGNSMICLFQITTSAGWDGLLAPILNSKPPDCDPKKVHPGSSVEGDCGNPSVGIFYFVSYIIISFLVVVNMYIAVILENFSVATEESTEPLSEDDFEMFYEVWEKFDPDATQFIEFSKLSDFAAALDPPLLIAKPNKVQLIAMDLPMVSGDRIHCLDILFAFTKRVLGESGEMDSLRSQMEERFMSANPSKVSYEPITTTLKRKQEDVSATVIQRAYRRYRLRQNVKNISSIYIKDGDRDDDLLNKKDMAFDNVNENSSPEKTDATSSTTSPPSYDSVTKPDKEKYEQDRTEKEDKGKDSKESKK
row,Compound,IC50
1,"COc1ncccc1-c1cc(C(=O)NS(C)(=O)=O)ccc1Oc1cccc(C(F)(F)F)c1F [Example 81, 4-[2-fluoro-3-(trifluoromethyl)phenoxy]-3-(2-methoxypyridin-3-yl)-N-(methylsulfonyl)benzamide]",1100 nM
2,"Cn1cc(-c2cc(C(=O)NS(C)(=O)=O)ccc2Oc2ccc(Cl)cc2)cn1 [Example 48, 4-(4-chlorophenoxy)-3-(1-methyl-1H-pyrazol-4-yl)-N-(methylsulfonyl)benzamide]",9800 nM
3,"COc1ccc(Oc2ccc(C(=O)NS(C)(=O)=O)cc2-c2cccnc2OC)c(F)c1 [Example 79, 4-(2-fluoro-4-methoxyphenoxy)-3-(2-methoxypyridin-3-yl)-N-(methylsulfonyl)benzamide]",2400 nM
4,"COc1ncccc1-c1cc(C(=O)NS(C)(=O)=O)ccc1Oc1ccc(F)c(C(F)(F)F)c1 [Example 78, 4-[4-fluoro-3-(trifluoromethyl)phenoxy]-3-(2-methoxypyridin-3-yl)-N-(methylsulfonyl)benzamide]",150 nM
5,"CS(=O)(=O)NC(=O)c1ccc(Oc2ccc(Cl)cc2)c(-c2ccc(C(F)(F)F)cc2)c1 [Example 43, 6-(4-chlorophenoxy)-N-(methylsulfonyl)-4′-(trifluoromethyl)biphenyl-3-carboxamide]",630 nM
6,"COc1ncccc1-c1cc(C(=O)NS(C)(=O)=O)ccc1Oc1ccc(OC(F)(F)F)cc1 [Example 93, 3-(2-methoxypyridin-3-yl)-N-(methylsulfonyl)-4-[4-(trifluoromethoxy)phenoxy]benzamide]",66 nM
7,"CCCn1cc(-c2cc(C(=O)NS(C)(=O)=O)ccc2Oc2ccc(Cl)cc2)cn1 [Example 41, 4-(4-chlorophenoxy)-N-(methylsulfonyl)-3-(1-propyl-1H-pyrazol-4-yl)benzamide]",> 3000 nM
8,"COCc1ccc(Oc2ccc(C(=O)NS(C)(=O)=O)cc2-c2cccnc2OC)cc1 [Example 62, 4-[4-(methoxymethyl)phenoxy]-3-(2-methoxypyridin-3-yl)-N-(methylsulfonyl)benzamide]",1200 nM
9,"Cc1n[nH]c(C)c1-c1cc(C(=O)NS(C)(=O)=O)ccc1Oc1ccc(Cl)cc1 [Example 14, 4-(4-chlorophenoxy)-3-(3,5-dimethyl-1H-pyrazol-4-yl)-N-(methylsulfonyl)benzamide]",> 3000 nM
10,"COc1ncccc1-c1cc(C(=O)NS(C)(=O)=O)ccc1Oc1ccc(C(C)C)cc1 [Example 92, 4-(4-isopropylphenoxy)-3-(2-methoxypyridin-3-yl)-N-(methylsulfonyl)benzamide]",38 nM
11,"COc1cccnc1-c1cc(C(=O)NS(C)(=O)=O)ccc1Oc1ccc(Cl)cc1 [Example 3, 4-(4-chlorophenoxy)-3-(3-methoxypyridin-2-yl)-N-(methylsulfonyl)benzamide]",990 nM
12,"COc1ccc(Oc2ccc(C(=O)NS(C)(=O)=O)cc2-c2cccnc2OC)cn1 [Example 70, 3-(2-methoxypyridin-3-yl)-4-[(6-methoxypyridin-3-yl)oxy]-N-(methylsulfonyl)benzamide]",2200 nM
13,"COc1ncccc1-c1cc(C(=O)NS(C)(=O)=O)ccc1Oc1ccc(C)cc1 [Example 73, 3-(2-methoxypyridin-3-yl)-4-(4-methylphenoxy)-N-(methylsulfonyl)benzamide]",170 nM
14,"COc1ncccc1-c1cc(C(=O)NS(C)(=O)=O)ccc1Oc1cccc(Cl)c1 [Example 52, 4-(3-chlorophenoxy)-3-(2-methoxypyridin-3-yl)-N-(methylsulfonyl)benzamide]",460 nM
15,"CCc1cccc(Oc2ccc(C(=O)NS(C)(=O)=O)cc2-c2cccnc2OC)c1 [Example 89, 4-(3-ethylphenoxy)-3-(2-methoxypyridin-3-yl)-N-(methylsulfonyl)benzamide]",160 nM
16,"COc1ncccc1-c1cc(C(=O)NS(C)(=O)=O)ccc1Oc1cccc(F)c1 [Example 59, 4-(3-fluorophenoxy)-3-(2-methoxypyridin-3-yl)-N-(methylsulfonyl)benzamide]",370 nM

row,Compound,IC50
1,"CS(=O)(=O)NC(=O)c1ccc(Oc2ccc(Cl)cc2)c(-c2ccccc2F)c1 [Example 18, 6-(4-chlorophenoxy)-2′-fluoro-N-(methylsulfonyl)-biphenyl-3-carboxamide]",570 nM
2,"COc1ncccc1-c1cc(C(=O)NS(=O)(=O)C2CC2)ccc1Oc1ccccc1 [Example 6, N-(cyclopropylsulfonyl)-3-(2-methoxypyridin-3-yl)-4-phenoxybenzamide]",1300 nM
3,"COc1ncccc1-c1cc(C(=O)NS(C)(=O)=O)ccc1Oc1cccc(OC(F)(F)F)c1 [Example 68, 3-(2-methoxypyridin-3-yl)-N-(methylsulfonyl)-4-[3-(trifluoromethoxy)phenoxy]benzamide]",83 nM
4,"CCc1ccccc1Oc1ccc(C(=O)NS(C)(=O)=O)cc1-c1cccnc1OC [Example 80, 4-(2-ethylphenoxy)-3-(2-methoxypyridin-3-yl)-N-(methylsulfonyl)benzamide]",> 1000 nM
5,"COc1ccc(-c2cc(C(=O)NS(C)(=O)=O)ccc2Oc2ccc(Cl)cc2)c(C)n1 [Example 42, 4-(4-chlorophenoxy)-3-(6-methoxy-2-methylpyridin-3-yl)-N-(methylsulfonyl)benzamide]",7500 nM
6,"COc1ncccc1-c1cc(C(=O)NS(C)(=O)=O)ccc1Oc1ccc(Cl)cn1 [Example 76, 4-[(5-chloropyridin-2-yl)oxy]-3-(2-methoxypyridin-3-yl)-N-(methylsulfonyl)benzamide]",> 1000 nM
7,"COc1ncccc1-c1cc(C(=O)NS(C)(=O)=O)ccc1Oc1ccc(F)cc1 [Example 91, 4-(4-fluorophenoxy)-3-(2-methoxypyridin-3-yl)-N-(methylsulfonyl)benzamide]",680 nM
8,"CS(=O)(=O)NC(=O)c1ccc(Oc2ccc(Cl)cc2)c(-c2ccccc2C(F)(F)F)c1 [Example 35, 6-(4-chlorophenoxy)-N-(methylsulfonyl)-2′-(trifluoromethyl)biphenyl-3-carboxamide]",8000 nM
9,"CCOc1cccc(-c2cc(C(=O)NS(C)(=O)=O)ccc2Oc2ccc(Cl)cc2)c1 [Example 20, 6-(4-chlorophenoxy)-3′-ethoxy-N-(methylsulfonyl)-biphenyl-3-carboxamide]",820 nM
10,"COc1ccc(Oc2ccc(C(=O)NS(C)(=O)=O)cc2-c2cccnc2OC)cc1 [Example 65, 4-(4-methoxyphenoxy)-3-(2-methoxypyridin-3-yl)-N-(methylsulfonyl)benzamide]",640 nM
11,"COc1ncccc1-c1cc(C(=O)NS(C)(=O)=O)ccc1Oc1ccc(OCC(C)C)nc1 [Example 2, 4-[(6-isobutoxypyridin-3-yl)oxy]-3-(2-methoxypyridin-3-yl)-N-(methylsulfonyl)benzamide diethylamine salt]",220 nM
12,"COc1cccc(Oc2ccc(C(=O)NS(C)(=O)=O)cc2-c2cccnc2OC)c1 [Example 85, 4-(3-methoxyphenoxy)-3-(2-methoxypyridin-3-yl)-N-(methylsulfonyl)benzamide]",640 nM
13,"CCOc1ccc(Oc2ccc(C(=O)NS(C)(=O)=O)cc2-c2cccnc2OC)cc1 [Example 83, 4-(4-ethoxyphenoxy)-3-(2-methoxypyridin-3-yl)-N-(methylsulfonyl)benzamide]",490 nM
14,"COc1ncccc1-c1cc(C(=O)NS(C)(=O)=O)ccc1Oc1cccc(C#N)c1 [Example 71, 4-(3-cyanophenoxy)-3-(2-methoxypyridin-3-yl)-N-(methylsulfonyl)benzamide]",2500 nM
15,"CCc1cc(Oc2ccc(C(=O)NS(C)(=O)=O)cc2-c2cccnc2OC)ccc1Cl [Example 60, 4-(4-chloro-3-ethylphenoxy)-3-(2-methoxypyridin-3-yl)-N-(methylsulfonyl)benzamide]",18 nM
